pIC50: −log10 of the molar value. Activity calls are given as the source filed them. The calls are words filed in the database; no cut-off is given here.
Legend:
[1] = Drug concentration in OF1 mouse blood at 1 mg/kg, iv measured at 1 hr post dose by LC-MS/MS analysis; format: ADME, organism-based; settings: whole blood, read-out: Ct
[2] = target: T1, Phosphatidylinositol 4,5-bisphosphate 3-kinase catalytic subunit delta isoform (Homo sapiens, UniProt O00329); assay: Inhibition of PI3Kdelta (unknown origin) using phosphatidylinositol as substrate measured for 15 to 60 mins by TR-FRET based Adapta universal kinase assay
T1 sequence (O00329 whole entry): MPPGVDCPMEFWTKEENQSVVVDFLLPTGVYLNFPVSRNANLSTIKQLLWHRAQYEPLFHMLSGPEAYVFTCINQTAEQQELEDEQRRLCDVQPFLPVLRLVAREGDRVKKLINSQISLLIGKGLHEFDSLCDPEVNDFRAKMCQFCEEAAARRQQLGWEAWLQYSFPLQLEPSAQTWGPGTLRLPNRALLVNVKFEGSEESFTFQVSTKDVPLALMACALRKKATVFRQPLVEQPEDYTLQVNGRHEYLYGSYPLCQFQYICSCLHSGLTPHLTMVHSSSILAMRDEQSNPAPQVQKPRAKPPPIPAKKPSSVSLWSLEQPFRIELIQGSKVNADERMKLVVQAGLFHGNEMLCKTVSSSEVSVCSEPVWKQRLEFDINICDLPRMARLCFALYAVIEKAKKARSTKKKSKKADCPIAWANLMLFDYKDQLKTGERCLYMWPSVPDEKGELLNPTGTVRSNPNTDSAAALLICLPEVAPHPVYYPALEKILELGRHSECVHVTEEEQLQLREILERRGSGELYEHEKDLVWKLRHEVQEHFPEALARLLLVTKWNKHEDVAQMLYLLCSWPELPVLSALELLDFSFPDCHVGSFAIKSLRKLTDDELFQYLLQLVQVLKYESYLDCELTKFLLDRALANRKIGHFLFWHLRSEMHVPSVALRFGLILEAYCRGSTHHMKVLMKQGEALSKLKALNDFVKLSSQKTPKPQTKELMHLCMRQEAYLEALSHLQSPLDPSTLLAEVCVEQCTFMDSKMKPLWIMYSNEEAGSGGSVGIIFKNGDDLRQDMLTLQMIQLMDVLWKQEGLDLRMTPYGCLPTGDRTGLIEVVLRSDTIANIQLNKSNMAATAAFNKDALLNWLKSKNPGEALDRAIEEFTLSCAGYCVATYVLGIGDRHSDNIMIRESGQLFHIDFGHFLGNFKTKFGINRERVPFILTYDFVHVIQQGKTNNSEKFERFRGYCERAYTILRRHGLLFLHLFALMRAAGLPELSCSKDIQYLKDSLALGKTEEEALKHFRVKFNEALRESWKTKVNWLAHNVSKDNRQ

[3] = Inhibition of PI3K PTEN mutant in human HCC38 cells assessed as reduction in phosphorylation of AKT at Ser473 residue by Western blot analysis; format: cell-based
[4] = Oral bioavailability in beagle dog at 0.3 mg/kg measured upto 24 hrs by LC-MS/MS analysis; format: ADME, organism-based, Canis lupus familiaris; settings: in vivo
[5] = Dose normalized AUC in beagle dog at 3 mg/kg, po measured upto 24 hrs by LC-MS/MS analysis; format: ADME, organism-based, Canis lupus familiaris; settings: in vivo
[6] = Dose normalized Cmax in Sprague-Dawley rat at 30 mg/kg, po measured upto 24 hrs by LC-MS/MS analysis; format: ADME, organism-based; settings: in vivo
[7] = Dose normalized Cmax in Sprague-Dawley rat at 100 mg/kg, po measured upto 24 hrs by LC-MS/MS analysis; format: ADME, organism-based; settings: in vivo
[8] = Dose normalized Cmax in beagle dog at 3 mg/kg, po measured upto 24 hrs by LC-MS/MS analysis; format: ADME, organism-based, Canis lupus familiaris; settings: in vivo
[9] = Tmax in beagle dog at 3 mg/kg, po measured upto 24 hrs by LC-MS/MS analysis; format: ADME, organism-based, Canis lupus familiaris; settings: in vivo
[10] = Oral bioavailability in Sprague-Dawley rat at 21.5 mg/kg using hydroxypropyl methylcellulose amorphous solid dispersion form of sample; format: ADME, organism-based; settings: in vivo
[11] = Cmax in Beagle dog at 5.4 mg/kg, po measured upto 24 hrs using PVP-ASD form of sample by LC-MS/MS analysis; format: ADME, organism-based, Canis lupus familiaris; parameters: dose 5.4 mg/kg, time < 24 hrs, route po; settings: in vivo
[12] = Efflux ratio of apparent permeability from […] in human Caco-2 cells at 10 uM incubated upto 120 mins by LC-MS/MS analysis; format: ADME, cell-based; settings: caco-2, 2 h
[13] = In vivo Inhibition of AKT phosphorylation at Ser473 residue in athymic nude mouse xenografted with rat Rat1-myr-p110alpha cells at 3 mg/kg, po qd measured after 1 hr; format: functional
[14] = tested on: Mus musculus; assay: In vivo Inhibition of AKT phosphorylation at Ser473 residue in athymic nude mouse xenografted with rat Rat1-myr-p110alpha cells at 20 mg/kg, po qd measured after 1 to 10 hrs; format: functional, organism-based; settings: time 1-10 hrs
[15] = tested on: Rat1; assay: Antitumor activity at rat Rat1 cells expressing myr-p110alpha xenografted in athymic nude mouse assessed as T/C ratio at 20 mg/kg, po bid measured after 15 to 24 days; format: functional; settings: time 15-24 day

In the case of `C[C@H]1OC(=O)N(c2nc(-c3cnc(N)nc3C(F)(F)F)cc(N3CCOCC3)n2)[C@H]1CO`, the concentration at 1 h [1] was 630 nM, the pIC50 [2] was 8.08 and the pIC50 [3] was 7.06. It also gave a bioavailability [4] of 98%, an AUC/dose [5] of 11213 nM·h and a Cmax/dose [6] of 41 nM. The Cmax/dose [7] was 22 nM, the Cmax/dose [8] was 309 nM and the Tmax [9] was 2 h. For the same compound, the bioavailability [10] was 100%, the Cmax [11] was 10700 nM and the Ratio [12] was 2.2. The inhibition in vivo at 3 mg/kg [13] was 80%, the inhibition [14] was “Active” and the T/C [15] was -0.8.

Reference: ChEMBL document CHEMBL5137017, “Identification of NVP-CLR457 as an Orally Bioavailable Non-CNS-Penetrant pan-Class IA Phosphoinositol-3-Kinase Inhibitor” (J Med Chem, 2022)
